A short description of the data set: Human HepG2 cell viability assay in 384 well format. The class given is toxicity, cell-based. The arrangement: dose 125 nL, time 70.5 hour; concentration not given beside the values. The note with it: HepG2 cells, read-out: Inhibition.
`CCn1cc2c(n1)C(COCC1CC1)CN(C(=O)c1cnoc1C)C2` (stereo not given): the cytotoxicity at 70.5 h was -12.8%.

Regarding `COCc1cnc2n1CCN(S(=O)(=O)N(C)C)C2C` (stereo not given), the cytotoxicity at 70.5 h was -15.1%.

Take `CCOCC1COCCC12CCN(C(=O)CS(C)(=O)=O)CC2` (stereo not given): the cytotoxicity at 70.5 h is -4.64%.

As for `Cn1c(C(=O)NC2CC2)nc2c1CCN(c1ncccn1)C2`, the cytotoxicity at 70.5 h is -4.38%.

`COCC(=O)N1CCC2(CCC2NS(=O)(=O)c2ccccc2)CC1` (stereo not given): the cytotoxicity at 70.5 h was determined as 28.8%.

On to `CC(C)CNC(=O)[C@H]1C[C@@H]2CN(C(=O)NCC3CCCCC3)C[C@H]1O2`, for which the cytotoxicity at 70.5 h was -2.13%.

Regarding `COC[C@@H]1CN(C)C(=O)[C@@H]2CCN(Cc3ccco3)CC[C@H]12`, the cytotoxicity at 70.5 h is -4.9%.

`CC(C)n1ccc(-c2cc(C(=O)NC3CC3)c3ccccn23)n1`: the cytotoxicity at 70.5 h came to 21.3%.

Consider `CC(C)N(C)[C@@H]1CCN(Cc2ccco2)[C@H]1Cc1ccccc1`, for which the cytotoxicity at 70.5 h was 38.2%.

For the compound `O=C(NCCN1CCCC1)c1nc2c(o1)CN(c1ncccn1)C2`, the cytotoxicity at 70.5 h was -1.07%.

For the compound `CCc1cnc(N2CCC3(CCN(CC)C3=O)CC2)nc1`, the cytotoxicity at 70.5 h is -4.14%.

On to `CCCNC(=O)c1cc(-c2ccn(C(C)C)n2)n2ccccc12`, for which the cytotoxicity at 70.5 h was -7.13%.

On to `CCCNC(=O)c1nc2c(o1)CN(c1ncccn1)C2`, for which the cytotoxicity at 70.5 h is -2.16%.

With `CN(C)C(=O)[C@H]1CC[C@@H]2[C@@H](CCN2C(=O)N(C)C)O1`, the cytotoxicity at 70.5 h was 1.41%.

On to `CC(=O)NCC(=O)N1Cc2cc(-c3cc[nH]n3)ccc2C1c1cnco1` (stereo not given), for which the cytotoxicity at 70.5 h was -2.28%.

For the compound `CCN(C)C(=O)c1ccnn1-c1ccc2ccccn12`, the cytotoxicity at 70.5 h was found to be 1.76%.

On to `O=C(NC1CC1)[C@H]1CC[C@@H]2[C@@H](CCN2Cc2ccsc2)O1`, for which the cytotoxicity at 70.5 h was -10.2%.

`O=C(c1ccnnc1)N1CCO[C@H]2[C@@H](OCc3cccnc3)CC[C@@H]21`: the cytotoxicity at 70.5 h was -6.56%.

Turning to `CC(C)CNc1nc2c(cc1C(=O)NCC1CC1)CCNCC2`, the cytotoxicity at 70.5 h worked out at 24.9%.

Consider `O=C(c1cnccn1)N1CCN2C[C@H](OCC3CC3)C[C@H]2C1`, for which the cytotoxicity at 70.5 h is 4.98%.

As for `CCN(C)c1ncnc2c1CCN(C(=O)[C@H]1CCCO1)CC2`, the cytotoxicity at 70.5 h is -9.23%.

`CN(C)C(=O)N1C[C@@H]2COC[C@]2(c2nnc(C3CC3)o2)C1`: the cytotoxicity at 70.5 h was -10.1%.

For the compound `Cc1ccoc1C(=O)N1CC[C@@H]2O[C@@H](C)C[C@H]2C1`, the cytotoxicity at 70.5 h is 0.684%.

For the compound `Cc1ncoc1C(=O)N1C[C@@H]2COC[C@]2(c2nnc(C3CC3)o2)C1`, the cytotoxicity at 70.5 h was -9.55%.

With `c1cnc(NCc2noc3c2CN(C2CCOC2)CC3)nc1` (stereo not given), the cytotoxicity at 70.5 h is -6.78%.

For the compound `O=C(c1ccoc1)N1CCc2c(COCc3ccncc3)cncc2C1`, the cytotoxicity at 70.5 h was 8.95%.

For `CC(C)(C)C(=O)N1CCC2(CC1)CC(Oc1ccccc1)CO2` (stereo not given), the cytotoxicity at 70.5 h turned out to be 11.5%.

For `Cc1ncnc2c1CCN(C(=O)c1ccsc1)CC2`, the cytotoxicity at 70.5 h was 7.97%.

Regarding `Cc1ccc(C(=O)N2CCc3ncnc(C)c3CC2)o1`, the cytotoxicity at 70.5 h worked out at 9.18%.

`Cc1ccc(N2CCCc3sc(C(=O)NCc4ccncc4)nc32)nn1`: the cytotoxicity at 70.5 h is -1.89%.

`CN1CCCc2sc(C(=O)NCc3cccnc3)nc21`: the cytotoxicity at 70.5 h is -10.4%.

For `O=C(NCc1cccnc1)c1nc2c(s1)CCCN2c1ncccn1`, the cytotoxicity at 70.5 h came out at 5.15%.

With `O=C(NCC1CC1)C1=NOC2(CCN(Cc3ccc(Cl)c(F)c3)C2)C1` (stereo not given), the cytotoxicity at 70.5 h is -7.64%.

On to `CCC(=O)N1CCC2(CC1)CC(Oc1ccccc1)CO2` (stereo not given), for which the cytotoxicity at 70.5 h was -4.49%.

In the case of `Cc1ncnc2c1CCN(C(=O)c1ccoc1)CC2`, the cytotoxicity at 70.5 h was -6.33%.

As for `COCCNC(=O)c1nc2c(s1)CCCN2c1ccc(C)nn1`, the cytotoxicity at 70.5 h was determined as 0.81%.

Take `O=C(c1cccs1)N1CCC2(CC1)CC(Oc1ccccc1)CO2` (stereo not given): the cytotoxicity at 70.5 h is -10.8%.

As to `O=C(C1CCCCC1)N1CCC2(CC1)CNCc1ccccc12`, the cytotoxicity at 70.5 h was 0.691%.

With `CC(C)C(=O)N1CCC2(CC1)NC(=O)c1ccccc12`, the cytotoxicity at 70.5 h is -2.39%.

With `O=C(NCC1CCC2(CCNCC2)CO1)c1ccno1` (stereo not given), the cytotoxicity at 70.5 h was 3.09%.

For the compound `Cn1cnc2c(N3CCOCC3)nc(C3CCNCC3)cc21`, the cytotoxicity at 70.5 h is -1.78%.

As for `CC(C)n1cnc2c(N3CCCC3)nc(C3CCNCC3)cc21`, the cytotoxicity at 70.5 h was found to be 5.44%.

For the compound `CC[C@@H]1N(CC2CCOCC2)CCC[C@]12CCC(=O)N2`, the cytotoxicity at 70.5 h is -6.16%.

As for `Fc1ccccc1CO[C@@H]1C[C@H]2CN(c3ncccn3)CCN2C1`, the cytotoxicity at 70.5 h turned out to be 4.66%.

For the compound `CN(C)Cc1cnc2n1CCN(C(=O)NC1CCCC1)CC2`, the cytotoxicity at 70.5 h is -1.58%.

Consider `CN1CCO[C@@H]2CN(C(=O)COc3cccc(Cl)c3)C[C@@H]2C1`, for which the cytotoxicity at 70.5 h worked out at 4.28%.

`CN1C[C@@H](COCC2CC2)[C@H]2CCN(Cc3ccco3)CC[C@H]2C1=O`: the cytotoxicity at 70.5 h was -5.7%.

As for `CN(C)C(=O)N1CC[C@H]2[C@H]1CCN2c1nncs1`, the cytotoxicity at 70.5 h was -6.13%.

In the case of `CCOCC(=O)N1CCc2c(CN(C)C)nn(C(C)C)c2C1`, the cytotoxicity at 70.5 h was -4.01%.

`COC[C@H]1CN(CC2CC2)C(=O)[C@@H]2CCN(Cc3ccoc3)CC[C@H]12`: the cytotoxicity at 70.5 h is -4.84%.

In the case of `CN(C)Cc1cnc2n1CCN(C(=O)Cc1ccc(F)cc1)CC2`, the cytotoxicity at 70.5 h is -1.54%.

Take `O=S1(=O)NCC2(CCN(c3ncccn3)CC2)COc2ccccc21`: the cytotoxicity at 70.5 h turned out to be 47.5%.

For `O=C(CC1CCCC1)N1CC[C@H]2[C@H]1CCN2c1nncs1`, the cytotoxicity at 70.5 h is 19.9%.

Consider `O=S(=O)(C1CC1)N1CCc2onc(COc3ccccn3)c2C1`, for which the cytotoxicity at 70.5 h came out at 34.6%.

On to `Cc1cccc(N2CCC3(CCCC(=O)N3)CC2)n1`, for which the cytotoxicity at 70.5 h was -0.82%.

With `Cc1ccc(N2CCCC3(CCCC(=O)N3)C2)nn1` (stereo not given), the cytotoxicity at 70.5 h was -5.66%.

Consider `Cc1cnc(N2CCN(C)c3ncccc3C2)nc1`, for which the cytotoxicity at 70.5 h came to 4.51%.

As to `COCC1CN(S(=O)(=O)c2ccc(C)cc2)Cc2c1cnn2C` (stereo not given), the cytotoxicity at 70.5 h amounted to 7.58%.

As for `c1cc(C2CC2)n2cnc(C3CN(Cc4nccs4)CCO3)c2c1` (stereo not given), the cytotoxicity at 70.5 h is -1.41%.

Turning to `COCC1CN(S(=O)(=O)Cc2ccccc2)Cc2c1cnn2C` (stereo not given), the cytotoxicity at 70.5 h was -1.14%.

Turning to `CCS(=O)(=O)N1CCc2onc(COc3ccccn3)c2C1`, the cytotoxicity at 70.5 h was -3.32%.

As to `c1nc2c(c(NC3CCC3)n1)CCNCC2`, the cytotoxicity at 70.5 h is -2.44%.

As to `COCC1CN(C(=O)COc2ccccc2)Cc2ncn(C)c21` (stereo not given), the cytotoxicity at 70.5 h was -0.249%.

With `c1ccc(OCc2noc3c2CN(c2ncccn2)CC3)nc1`, the cytotoxicity at 70.5 h is -6.14%.

Take `Cc1ccc2c(n1)N(C)CCN(C(=O)NC(C)C)C2`: the cytotoxicity at 70.5 h was -6.1%.

As to `O=C(N[C@@H]1CN(Cc2cccs2)[C@@H]2CCCO[C@@H]21)c1cscn1`, the cytotoxicity at 70.5 h is -9.16%.

Consider `CS(=O)(=O)N1CC[C@H]2O[C@H](C(=O)NCCc3ccccn3)CC[C@H]21`, for which the cytotoxicity at 70.5 h is -9.62%.

As to `CCN(C)c1ncnc2c1CCN(C(=O)N(C)C)CC2`, the cytotoxicity at 70.5 h was determined as 0.982%.

As for `CN1CCC2(C=C(C(=O)N3CCCC3)c3ccccc32)CC1`, the cytotoxicity at 70.5 h was found to be 1.49%.

In the case of `O=C(Nc1ccccc1)C1CN(CC2CCOCC2)CC12CCOCC2` (stereo not given), the cytotoxicity at 70.5 h turned out to be 9.8%.

As for `O=C(NCc1ccco1)[C@@H]1CC[C@@H]2[C@@H](CCN2CC2CC2)O1`, the cytotoxicity at 70.5 h was -6.24%.

In the case of `O=C(c1cnccn1)N1CCN2C[C@H](OCc3ccccc3)C[C@H]2C1`, the cytotoxicity at 70.5 h is -1.37%.

In the case of `CN1CCC2(COCc3cnc(-c4ccccc4)nc32)C1` (stereo not given), the cytotoxicity at 70.5 h was -6.86%.

Take `CCN(C)c1ncnc2c1CCN(C(=O)COC)CC2`: the cytotoxicity at 70.5 h is -10.8%.

With `O=C(NCc1cccs1)c1nc2c(o1)CN(CC1CC1)C2`, the cytotoxicity at 70.5 h was -9.19%.

Consider `CN(C)C(=O)NC[C@@H]1OC[C@H]2CN(Cc3cccc(F)c3)CC[C@H]21`, for which the cytotoxicity at 70.5 h is -6.1%.

With `CCOCC1CN(S(=O)(=O)N(C)C)Cc2cnn(CC)c21` (stereo not given), the cytotoxicity at 70.5 h is -8.84%.

On to `Cc1nc(CN2Cc3nccn3CC(COCC3CC3)C2)cs1` (stereo not given), for which the cytotoxicity at 70.5 h is -0.0625%.

`CS(=O)(=O)N1Cc2cnn(CC3CC3)c2C(COCC2CC2)C1` (stereo not given): the cytotoxicity at 70.5 h was -6.21%.

`COCCN1CCC2(COCc3cnc(N(C)C)nc32)C1` (stereo not given): the cytotoxicity at 70.5 h is -2.9%.

For the compound `Cc1ccc(CN2CCOC3(COCCN(S(C)(=O)=O)C3)C2)o1` (stereo not given), the cytotoxicity at 70.5 h is -5.62%.

As to `c1ccc(CO[C@@H]2C[C@H]3CN(c4ncccn4)CCN3C2)nc1`, the cytotoxicity at 70.5 h is -7.06%.

In the case of `COCCN1CCO[C@@H]2CN(Cc3ccccc3OC)C[C@@H]2C1`, the cytotoxicity at 70.5 h was -0.773%.

Turning to `COCCN1CCC2(CC1)CC(NCc1cncn1C)c1ccccc12` (stereo not given), the cytotoxicity at 70.5 h turned out to be 1.8%.

Turning to `O=C(NC1CC2(CCN(CCO)CC2)c2ccccc21)c1ccncc1` (stereo not given), the cytotoxicity at 70.5 h is -5.59%.

Regarding `COCCN1CCO[C@@H]2CN(Cc3ccc(C)s3)C[C@@H]2C1`, the cytotoxicity at 70.5 h is -2.59%.

On to `O=C(N[C@H]1CN(Cc2cccs2)[C@@H]2CCCO[C@H]12)c1cccnc1`, for which the cytotoxicity at 70.5 h was -18.4%.

Turning to `CCc1cnc(N2CC[C@H]3[C@H]2CC(=O)N3c2cccnc2)nc1`, the cytotoxicity at 70.5 h is -10%.

Turning to `O=C(NCCc1ccncc1)[C@H]1CC[C@@H]2[C@@H](CCN2CC2CC2)O1`, the cytotoxicity at 70.5 h is -10.8%.

Turning to `O=C(NCCc1ccncc1)[C@@H]1CC[C@@H]2[C@@H](CCN2Cc2ccco2)O1`, the cytotoxicity at 70.5 h was -9.71%.

`Cc1nnc(N2C[C@@H](Oc3ccccn3)[C@H]3OCCC[C@H]32)s1`: the cytotoxicity at 70.5 h is -4.15%.

For the compound `O=C(c1ccc[nH]1)N1CCc2c(COCc3ccncc3)cncc2C1`, the cytotoxicity at 70.5 h is -3.15%.

For the compound `CCN(CC)CC1CN(Cc2nccs2)Cc2nccn2C1` (stereo not given), the cytotoxicity at 70.5 h was -9.42%.

As for `Cn1cc(CNC2CC3(CCN(CC4CC4)CC3)c3ccccc32)cn1` (stereo not given), the cytotoxicity at 70.5 h was -2.11%.

As for `c1coc(CN2CCOC3(COCCN(Cc4ccncc4)C3)C2)c1` (stereo not given), the cytotoxicity at 70.5 h was -3.4%.
